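All cell lines were grown in 96-well plates and treated with compound for 48 hours. Here, GI50 denotes the concentration required for 50% inhibition of growth.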 The source made the active and inactive calls. Cut-off read from the data, not from the text of the source: active = GI50 up to about 1.1 µM and inactive = higher.
How the values were obtained:
Assay in all cases: DTP human tumour cell line panel, 48 h
HT-29 = system: HT-29
HL-60 = system: HL-60
DMS-273 = system: DMS-273
RPMI-8226 = system: RPMI-8226
SK-MEL-5 = system: SK-MEL-5
OVCAR-5 = system: OVCAR-5
OVCAR-8 = system: OVCAR-8
SF-268 = system: SF-268
NCI-H460 = system: NCI-H460
TK-10 = system: TK-10
EKVX = system: EKVX
SK-MEL-2 = system: SK-MEL-2
SK-MEL-28 = system: SK-MEL-28
HCC 2998 = system: HCC 2998
SF-295 = system: SF-295
NCI-H522 = system: NCI-H522
HOP-62 = system: HOP-62
DLD-1 = system: DLD-1
UACC-257 = system: UACC-257
ACHN = system: ACHN
SR = system: SR
SK-OV-3 = system: SK-OV-3
SW-620 = system: SW-620
HCT-15 = system: HCT-15
LXFL 529 = system: LXFL 529
M19-MEL = system: M19-MEL
UACC-62 = system: UACC-62
COLO 205 = system: COLO 205
U-251 = system: U-251
CAKI-1 = system: CAKI-1
Malme-3M = system: Malme-3M
HCT-116 = system: HCT-116
SN12C = system: SN12C
OVCAR-3 = system: OVCAR-3
IGROV-1 = system: IGROV-1
LOX IMVI = system: LOX IMVI
SNB-19 = system: SNB-19
A549 = system: A549
SF-539 = system: SF-539
HOP-92 = system: HOP-92
NCI-H226 = system: NCI-H226
DMS-114 = system: DMS-114
KM-20L2 = system: KM-20L2
XF498 = system: XF498
KM12 = system: KM12
NCI-H23 = system: NCI-H23
CCRF-CEM = system: CCRF-CEM
RXF 393 = system: RXF 393
MOLT-4 = system: MOLT-4
786-0 = system: 786-0
K562 = system: K562
RXF 631 = system: RXF 631
OVCAR-4 = system: OVCAR-4
A498 = system: A498
M14 = system: M14
SNB-75 = system: SNB-75
UO-31 = system: UO-31
SNB-78 = system: SNB-78

In the case of `CCC12CCCN(Cc3ccccc3)C1c1c(n(C)c3ccccc13)C(C(=O)OC)C2` (stereo unspecified), the GI50 (HT-29) was 73.1 µM (inactive), the GI50 (HL-60) was 87.3 µM (inactive) and the GI50 (DMS-273) was 84.5 µM (inactive). For the same compound, the GI50 (RPMI-8226) was 82.4 µM (inactive), the GI50 (SK-MEL-5) was 43.8 µM (inactive) and the GI50 (OVCAR-5) was 78.2 µM (inactive). The GI50 (OVCAR-8) was 169 µM (inactive), the GI50 (SF-268) was 175 µM (inactive) and the GI50 (NCI-H460) was 117 µM (inactive). For the same compound, the GI50 (TK-10) was > 239 µM (inactive), the GI50 (EKVX) was > 239 µM (inactive) and the GI50 (SK-MEL-2) was > 239 µM (inactive). For the same compound, the GI50 (SK-MEL-28) was > 239 µM (inactive), the GI50 (HCC 2998) was 164 µM (inactive) and the GI50 (SF-295) was 75.7 µM (inactive). The GI50 (NCI-H522) was 53.2 µM (inactive), the GI50 (HOP-62) was 129 µM (inactive) and the GI50 (DLD-1) was 212 µM (inactive). The GI50 (UACC-257) was 66.4 µM (inactive), the GI50 (ACHN) was 182 µM (inactive) and the GI50 (SR) was 72.6 µM (inactive). The GI50 (SK-OV-3) was 236 µM (inactive), the GI50 (SW-620) was 115 µM (inactive) and the GI50 (HCT-15) was 70.3 µM. For the same compound, the GI50 (LXFL 529) was 96.6 µM (inactive), the GI50 (M19-MEL) was 112 µM (inactive) and the GI50 (UACC-62) was > 239 µM (inactive). The GI50 (COLO 205) was 107 µM (inactive), the GI50 (U-251) was 117 µM (inactive) and the GI50 (CAKI-1) was 205 µM (inactive). The GI50 (Malme-3M) was > 239 µM (inactive), the GI50 (HCT-116) was 51.6 µM (inactive) and the GI50 (SN12C) was 84.1 µM (inactive). The GI50 (OVCAR-3) was 53.7 µM (inactive), the GI50 (IGROV-1) was 146 µM (inactive) and the GI50 (LOX IMVI) was 158 µM (inactive). For the same compound, the GI50 (SNB-19) was 72.9 µM (inactive), the GI50 (A549) was > 239 µM (inactive) and the GI50 (SF-539) was 126 µM (inactive). For the same compound, the GI50 (HOP-92) was 79.8 µM (inactive), the GI50 (NCI-H226) was 66.2 µM (inactive) and the GI50 (DMS-114) was 90.6 µM (inactive). The GI50 (KM-20L2) was 130 µM (inactive), the GI50 (XF498) was 36.8 µM (inactive) and the GI50 (KM12) was 85.3 µM (inactive). The GI50 (NCI-H23) was 77.1 µM (inactive), the GI50 (CCRF-CEM) was 143 µM (inactive) and the GI50 (RXF 393) was 128 µM (inactive). The GI50 (MOLT-4) was 74.3 µM (inactive), the GI50 (786-0) was 206 µM (inactive) and the GI50 (K562) was 93.5 µM (inactive). The GI50 (RXF 631) was 111 µM (inactive).

With `COc1cccc(-c2cc(=O)c3cc(C)c(C)c(C(=O)O)c3o2)c1` the GI50 (HT-29) was > 100 µM (inactive), the GI50 (HL-60) was > 100 µM (inactive) and the GI50 (DMS-273) was > 100 µM (inactive). For the same compound, the GI50 (RPMI-8226) was > 100 µM (inactive), the GI50 (OVCAR-4) was > 100 µM (inactive) and the GI50 (A498) was > 100 µM (inactive). For the same compound, the GI50 (SK-MEL-5) was > 100 µM (inactive), the GI50 (OVCAR-5) was > 100 µM (inactive) and the GI50 (OVCAR-8) was > 100 µM (inactive). The GI50 (SF-268) was > 100 µM (inactive), the GI50 (NCI-H460) was > 100 µM (inactive) and the GI50 (M14) was > 100 µM (inactive). For the same compound, the GI50 (TK-10) was > 100 µM (inactive), the GI50 (EKVX) was > 100 µM (inactive) and the GI50 (SK-MEL-2) was > 100 µM (inactive). For the same compound, the GI50 (SK-MEL-28) was > 100 µM (inactive), the GI50 (HCC 2998) was > 100 µM (inactive) and the GI50 (SF-295) was > 100 µM (inactive). The GI50 (NCI-H522) was > 100 µM (inactive), the GI50 (HOP-62) was > 100 µM (inactive) and the GI50 (DLD-1) was > 100 µM (inactive). For the same compound, the GI50 (UACC-257) was > 100 µM (inactive), the GI50 (ACHN) was > 100 µM (inactive) and the GI50 (SK-OV-3) was > 100 µM (inactive). The GI50 (SW-620) was > 100 µM (inactive), the GI50 (HCT-15) was over 100 µM and the GI50 (LXFL 529) was > 100 µM (inactive). For the same compound, the GI50 (M19-MEL) was > 100 µM (inactive), the GI50 (UACC-62) was > 100 µM (inactive) and the GI50 (COLO 205) was > 100 µM (inactive). For the same compound, the GI50 (U-251) was > 100 µM (inactive), the GI50 (Malme-3M) was > 100 µM (inactive) and the GI50 (HCT-116) was > 100 µM (inactive). For the same compound, the GI50 (SN12C) was > 100 µM (inactive), the GI50 (OVCAR-3) was > 100 µM (inactive) and the GI50 (SNB-75) was 16.9 µM (inactive). For the same compound, the GI50 (UO-31) was > 100 µM (inactive), the GI50 (IGROV-1) was > 100 µM (inactive) and the GI50 (LOX IMVI) was > 100 µM (inactive). The GI50 (SNB-78) was > 100 µM (inactive), the GI50 (SNB-19) was > 100 µM (inactive) and the GI50 (A549) was > 100 µM (inactive). For the same compound, the GI50 (SF-539) was > 100 µM (inactive), the GI50 (HOP-92) was > 100 µM (inactive) and the GI50 (DMS-114) was > 100 µM (inactive). For the same compound, the GI50 (KM-20L2) was > 100 µM (inactive), the GI50 (XF498) was > 100 µM (inactive) and the GI50 (KM12) was > 100 µM (inactive). The GI50 (NCI-H23) was > 100 µM (inactive), the GI50 (CCRF-CEM) was > 100 µM (inactive) and the GI50 (MOLT-4) was > 100 µM (inactive). For the same compound, the GI50 (786-0) was > 100 µM (inactive), the GI50 (K562) was > 100 µM (inactive) and the GI50 (RXF 631) was > 100 µM (inactive).
